# From patent US12325710B2, “Substituted 1,2,3,4,5,6-hexahydroazepino[4,5-b]indoles for treating brain disorders” (priority 2019, dated 2025)
# Key:
# [1] = tested on: 5HT2A sensor; experiment: 5HT2A sensor assay (sLight1.3s HEK293T cells), agonist and antagonist mode; type: cell-based; details: for activation of 5HT2A sensor, agonist mode / competition with 5HT binding at 5HT2A sensor, antagonist mode: 10 μM of compound; for activation of 5HT2A sensor, agonist mode: FIG. 16; for competition with 5HT binding at 5HT2A sensor, antagonist mode: FIG. 18; for activation of 5HT2A sensor, agonist mode, dose response: FIG. 15
# Procedure: 5HT2A Sensor Assays. HEK293T (ATCC) 5HT2A sensor stable line (sLight1.3s) was generated via lentiviral transduction of HIV-EF1α-sLight1.3 and propagated from a single colony. Lentivirus was produced using 2nd generation lentiviral plasmids pHIV-EF1α-sLight1.3, pHCMV-G, and pCMV-deltaR8.2.
# For the screening of the 41 compounds, sLight1.3s cells were plated in 96-well plates at a density of 40000 24-hours prior to imaging. On the day of imaging, compounds solubilized in DMSO were diluted from the 100 mM stock solution to working concentrations of 1 mM, 100 μM and 1 μM with a DMSO concentration of 1%. Immediately prior to imaging, cells growing in DMEM (Gibco) were washed 2× with HBSS (Gibco) and in agonist mode 180 μL of HBSS or in antagonist mode 160 μL of HBSS was added to each well after the final wash. For agonist mode, images were taken before and after the addition of the 20 μL compound working solution into the wells containing 180 μL HBSS. This produced final compound concentrations of 100 μM, 10 μM and 100 nM with a DMSO concentration of 0.1%. For antagonist mode, images were taken before and after addition of 20 μL of 900 nM 5-HT and again after 20 μL of the compound working solutions to produce final concentrations of 100 nM for 5HT and 100 μM, 10 μM and 100 nM for the compounds with a DMSO concentration of 0.1%. Each compound was tested in triplicates (3 wells) for each concentration (100 μM, 10 μM and 100 nM). Additionally, within each plate, 100 nM 5HT and 0.1% DMSO controls were also imaged.
# For each well, the cellular membrane where the 5HT2A sensor is targeted was autofocused using the adaptive focus controls and 5 images from different regions within the well were taken with each image processed from a 2×2 binning.
# For data processing, the membranes from each image was segmented and analyzed using a custom algorithm written in MATLAB producing a single raw fluorescence intensity value. For each well the 5 raw fluorescence intensity values generated from the 5 images were averaged and the change in fluorescence intensity (dFF) was calculated as: dFF=(Fsat−Fapo)/Fapo
# For both agonist and antagonist modes, the fluorescence intensity values before compound addition in HBSS only were used as the Fapo values while the fluorescence intensity values after compound addition were used as the Fsat values.
# For agonist mode, data are as percent activation relative to 5HT, where 0 is the average of the DMSO wells and 100 is the average of the 100 μM 5HT wells.
# [2] = tested on: rat embryonic cortical neurons; experiment: Dendritogenesis (Sholl analysis) in cultured cortical neurons; type: cell-based; details: 1 h treatment followed by 71 h growth; compared to vehicle (VEH)
# Procedure: Embryonic rat cortical neurons were treated for a short period of time (1 h) followed by a suitable growth period (71 h) to measure the psychoplastogenic effects of the compounds described herein. […] Therefore, the effects of ibogalogs 8-17 on dendritic growth was assessed.
# Dendritogenesis Experiments. For the dendritogenesis experiments conducted using cultured cortical neurons, timed pregnant Sprague Dawley rats were obtained from Charles River Laboratories (Wilmington, MA). Full culturing, staining, and analysis details were performed as previously described. (Dunlap, L. et al., 2019)
# [3] = tested on: larval zebrafish; experiment: Larval zebrafish movement activity during a battery of light and acoustic stimuli; details: for behavioral phenotype at highest concentration versus lethal control: 200 μM; for behavioral phenotype with increasing concentration versus vehicle and lethal control (eugenol, 100 μM): 1 h treatment, concentration-response
# Description: Stimuli applied over time are indicated under the heatmaps. Colors indicate bright LED light of respective colors, black traces represent the waveforms of acoustic stimuli, and gray vertical lines indicate physical tapping as secondary acoustic stimuli.
# Response is […] proportional to classification accuracy; 0-20% indicates no ability and 100% indicates perfect classification. […] The solid line denotes the median and the shading denotes a 95th percentile confidence interval calculated by bootstrap. N=8 wells/condition (64 animals/condition).
# [4] = tested on: zebrafish; experiment: Zebrafish developmental toxicity assay; type: in vivo; details: 100 μM; 2 and 5 dpf
compound,measurement,setting,value
CCN(CC)C(=O)[C@@H]1C=C2c3cccc4[nH]c(Br)c(c34)C[C@H]2N(C)C1 [BOL148],"activation of 5HT2A sensor, agonist mode",[1],do not activate the 5HT2A sensor assay in agonist mode
same,"competition with 5HT binding at 5HT2A sensor, antagonist mode",[1]; antagonist mode,compete with 5HT binding to 5HT2A
CCN(CC)CCc1c[nH]c2cc(F)ccc12 [Compound 6-F-DET],"activation of 5HT2A sensor, agonist mode",[1],do not activate the 5HT2A sensor assay in agonist mode
same,"competition with 5HT binding at 5HT2A sensor, antagonist mode",[1]; antagonist mode,compete with 5HT binding to 5HT2A
COc1ccc2c(CCN(C)C)c[nH]c2c1 [Compound 6-MeO-DMT],"activation of 5HT2A sensor, agonist mode",[1],do not activate the 5HT2A sensor assay in agonist mode
same,"activation of 5HT2A sensor, agonist mode, dose response",[1],do not
same,"competition with 5-HT at 5HT2A sensor, antagonist mode, dose response","[1]; antagonist mode, FIG. 17",compete off 5-HT
CCC1CC2CCC1N(CCc1c[nH]c3ccc(O)cc13)C2 (stereo not shown) [Compound 11b],psychoplastogenic effect on dendritic growth (Sholl analysis),[2],weak psychoplastogens or did not promote neuronal growth
CN(C)CCc1c[nH]c2ccccc12 [DMT],"activation of 5HT2A sensor, agonist mode",[1],activate the 5HT2A sensor assay in agonist mode
"O=C(c1ccc(F)cc1)C1CCN(CCn2c(=O)[nH]c3ccccc3c2=O)CC1 [Ketanserin, ketanserin]","activation of 5HT2A sensor, agonist mode",[1],do not activate the 5HT2A sensor assay in agonist mode
same,"competition with 5HT binding at 5HT2A sensor, antagonist mode",[1]; antagonist mode,compete with 5HT binding to 5HT2A
"CCN(CC)C(=O)[C@@H]1C=C2c3cccc4[nH]cc(c34)C[C@H]2N(C)C1 [LSD, lysergic acid diethylamide]","activation of 5HT2A sensor, agonist mode",[1],activate the 5HT2A sensor assay in agonist mode
same,"activation of 5HT2A sensor, agonist mode, dose response",[1],activate a 5HT2A sensor assay in agonist mode
CNC(C)Cc1ccc2c(c1)OCO2 (stereo not shown) [R-MDMA],"activation of 5HT2A sensor, agonist mode",[1],do not activate the 5HT2A sensor assay in agonist mode
"O=S1OCC2C(CO1)C1(Cl)C(Cl)=C(Cl)C2(Cl)C1(Cl)Cl (stereo not shown) [endosulfan, reference compound]",behavioral phenotype at highest concentration versus lethal control,[3],phenotypically consistent with the lethal control
"O=C(CCCN1CCC(O)(c2ccc(Cl)cc2)CC1)c1ccc(F)cc1 [haloperidol, reference compound]","behavioral phenotype with increasing concentration versus vehicle and lethal control (eugenol, 100 μM)",[3],"more phenotypically distinct from the vehicle control, while more closely resembling the lethal control"
"CC[C@H]1C[C@H]2C[C@H]3c4[nH]c5ccc(O)cc5c4CCN(C2)[C@@H]13 [noribogaine, reference compound]",behavioral phenotype at highest concentration versus lethal control,[3],phenotypically consistent with the lethal control
same,"behavioral phenotype with increasing concentration versus vehicle and lethal control (eugenol, 100 μM)",[3],"more phenotypically distinct from the vehicle control, while more closely resembling the lethal control"
same,"malformations, mortality, non-viable fish",[4],"greater survival, but the majority of the animals exhibited yolk sac and/or pericardial edemas"
"O=C1NCCN1CCN1CCC(c2cn(-c3ccc(F)cc3)c3ccc(Cl)cc23)CC1 [sertindole, reference compound]","behavioral phenotype with increasing concentration versus vehicle and lethal control (eugenol, 100 μM)",[3],"more phenotypically distinct from the vehicle control, while more closely resembling the lethal control"
"CC(C)(C)c1ccc(C(O)CCCN2CCC(C(O)(c3ccccc3)c3ccccc3)CC2)cc1 (stereo not shown) [terfenadine, reference compound]","behavioral phenotype with increasing concentration versus vehicle and lethal control (eugenol, 100 μM)",[3],"more phenotypically distinct from the vehicle control, while more closely resembling the lethal control"
ibogaine [reference compound],psychoplastogenic effect on dendritic growth (Sholl analysis),[2],demonstrates psychoplastogenic effects
